Data from US20090274675A1, “Migraine tonic” (priority 2008, published 2009).

Legend:
[1] = test system: women suffering from severe migraine; test: Intravenous magnesium in intra-partum and post-partum women with severe migraine; assay type: in vivo, human; settings: intravenous injection
Procedure: Use of magnesium is useful to control this neuronal excitability, which is one factor that perpetuates migraine. […] In this invention the unit dosage of Magnesium Citrate to be used is 250 to 500 mg. per total formulation dosage.

[2] = test system: migraine headache; settings: several clinical trials in the U.S and Europe; cited from earlier work

Structure (SMILES) | effect on severe migraine [1] | improvement in migraine headache [2]
[Mg+2] [magnesium, Magnesium] | dramatic effect | –
Cc1cc2nc3c(=O)[nH]c(=O)nc-3n(C[C@H](O)[C@H](O)[C@H](O)CO)c2cc1C [riboflavin, Riboflavin] | – | statistically significant
